Drawing on ChEMBL document CHEMBL5038592, “Discovery of MK-8153, a Potent and Selective ROMK Inhibitor and Novel Diuretic/Natriuretic” (J Med Chem, 2021), this text covers IC50, Ratio and Papp for eleven compounds.

Data set [1] addresses Voltage-gated inwardly rectifying potassium channel KCNH2 (Homo sapiens, UniProt Q12809). Nature of the data set: Inhibition of human ERG expressed in HEK-293 cells by voltage clamp electrophysiology assay.
For another data set, the species on record is Homo sapiens. The data set can be described thus: Selectivity index, ratio of IC50 for human ERG to IC50 for human ROMK.
The target of data set [2] is T1, ATP-sensitive inward rectifier potassium channel 1 (Homo sapiens, UniProt P48048).
T1 sequence (P48048 whole entry): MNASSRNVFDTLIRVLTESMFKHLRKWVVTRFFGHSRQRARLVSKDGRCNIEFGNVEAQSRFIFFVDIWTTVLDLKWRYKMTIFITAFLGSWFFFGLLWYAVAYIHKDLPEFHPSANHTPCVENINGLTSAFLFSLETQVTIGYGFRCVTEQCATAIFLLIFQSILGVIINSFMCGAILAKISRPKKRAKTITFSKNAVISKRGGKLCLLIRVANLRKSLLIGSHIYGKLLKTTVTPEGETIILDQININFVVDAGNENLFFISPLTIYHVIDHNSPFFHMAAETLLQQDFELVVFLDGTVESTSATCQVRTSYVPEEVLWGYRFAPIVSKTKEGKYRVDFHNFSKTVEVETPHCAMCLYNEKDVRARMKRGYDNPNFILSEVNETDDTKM
Nature of the data set: Inhibition of human ROMK expressed in CHO cells by whole cell voltage clamp electrophysiology assay. Format: cell-based.

The nature of data set [3]: Apparent permeability in pig LLC-PK1 cells.

Sequence of Voltage-gated inwardly rectifying potassium channel KCNH2 (Q12809 whole entry): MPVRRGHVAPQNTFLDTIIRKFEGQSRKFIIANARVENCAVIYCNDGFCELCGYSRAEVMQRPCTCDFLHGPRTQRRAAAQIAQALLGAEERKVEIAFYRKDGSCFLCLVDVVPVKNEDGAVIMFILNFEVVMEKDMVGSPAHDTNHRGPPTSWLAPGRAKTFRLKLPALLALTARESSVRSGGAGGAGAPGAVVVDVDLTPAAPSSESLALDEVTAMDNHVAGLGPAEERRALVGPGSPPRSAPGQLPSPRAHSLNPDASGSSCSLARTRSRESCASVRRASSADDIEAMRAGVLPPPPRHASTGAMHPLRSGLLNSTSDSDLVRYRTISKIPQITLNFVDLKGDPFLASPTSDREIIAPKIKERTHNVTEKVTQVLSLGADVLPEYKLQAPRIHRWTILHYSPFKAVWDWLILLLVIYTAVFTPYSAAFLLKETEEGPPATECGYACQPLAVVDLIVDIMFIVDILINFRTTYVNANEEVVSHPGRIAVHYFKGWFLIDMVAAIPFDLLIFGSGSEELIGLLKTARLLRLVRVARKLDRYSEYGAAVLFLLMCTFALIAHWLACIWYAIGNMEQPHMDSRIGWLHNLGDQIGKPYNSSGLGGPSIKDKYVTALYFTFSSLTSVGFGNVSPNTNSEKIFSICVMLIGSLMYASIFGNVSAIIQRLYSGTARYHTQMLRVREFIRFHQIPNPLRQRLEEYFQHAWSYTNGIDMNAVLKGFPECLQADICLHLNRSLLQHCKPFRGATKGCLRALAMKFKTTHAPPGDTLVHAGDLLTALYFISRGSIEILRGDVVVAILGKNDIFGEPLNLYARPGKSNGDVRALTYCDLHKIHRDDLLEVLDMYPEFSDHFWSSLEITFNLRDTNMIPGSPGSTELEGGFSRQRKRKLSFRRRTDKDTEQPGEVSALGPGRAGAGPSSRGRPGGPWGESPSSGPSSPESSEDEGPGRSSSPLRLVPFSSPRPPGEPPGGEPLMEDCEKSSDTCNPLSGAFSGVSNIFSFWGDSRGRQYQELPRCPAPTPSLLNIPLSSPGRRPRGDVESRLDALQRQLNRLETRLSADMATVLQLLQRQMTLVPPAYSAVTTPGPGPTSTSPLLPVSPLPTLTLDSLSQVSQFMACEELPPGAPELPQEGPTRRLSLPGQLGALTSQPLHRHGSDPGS

In general, IC50 refers to the midpoint of a concentration-inhibition curve. A lower IC50 goes with higher potency. By Papp is commonly meant a coefficient for how fast a substance crosses the barrier. In the case of `Cc1c([C@@H](O)CN2CCC3(CC2)CC(=O)N(C2=CC(=O)OC2)C3)ccc2c1COC2=O`, the half-maximal inhibitory concentration (IC50) was found to be 90 µM in data set [1] and 0.045 µM in data set [2]. The Ratio in the data set listed under Homo sapiens was determined as 2000. The Papp in data set [3] stood at 7.9 ×10⁻⁶ cm/s.

Take `Cc1c([C@@H](O)CN2CCC3(CC2)CCN(C2=CC(=O)OC2)C3=O)ccc2c1COC2=O`: in data set [3], the apparent permeability (Papp) came to 11 ×10⁻⁶ cm/s.

`Cc1c([C@@H](O)CN2CCN(C[C@H](O)c3ccc4c(c3C)COC4=O)CC2)ccc2c1COC2=O` [MK-7145] gave a half-maximal inhibitory concentration (IC50) in data set [1] of 22 µM. Further, in data set [3], the Papp was determined as 20 ×10⁻⁶ cm/s.

`CC1=C(N2CCC3(CCN(C[C@H](O)c4ccc5c(c4C)COC5=O)CC3)C2=O)CCC1=O`: in data set [2], the concentration for half-maximal inhibition (IC50) stood at 0.015 µM. The Papp in data set [3] is 22 ×10⁻⁶ cm/s.

Take `Cc1c([C@@H](O)CN2CCC3(CC2)CCN(C2=CC(=O)OC2C)C3=O)ccc2c1COC2=O` (some centres not stated): the IC50 in data set [1] worked out at 19 µM; in data set [2], 0.024 µM. Further, the Papp in data set [3] stood at 19 ×10⁻⁶ cm/s.

Turning to `Cc1c([C@@H](O)CN2CCC3(CC2)CCN(C2=CC(=O)OC2)C3)ccc2c1COC2=O`, the 50% inhibitory concentration (IC50) is 90 µM in data set [1] and 0.026 µM in data set [2]. For the same compound, the Ratio in the data set listed under Homo sapiens was found to be 3400. For the same compound, the apparent permeability (Papp) in data set [3] came out at 27 ×10⁻⁶ cm/s.

Consider `CC1=C(N2CCC3(CCN(C[C@H](O)c4ccc5c(c4C)COC5=O)CC3)C2=O)C(C)OC1=O` (some centres not stated), for which the 50% inhibitory concentration (IC50) in data set [1] amounted to 20 µM; in data set [2], 0.098 µM. The Papp in data set [3] came out at 20 ×10⁻⁶ cm/s.

With `CC1=C(N2C(=O)C3(CCN(C[C@H](O)c4ccc5c(c4C)COC5=O)CC3)CC2C)COC1=O` (some centres not stated), the half-inhibitory concentration (IC50) is 18 µM in data set [1] and 0.018 µM in data set [2]. In addition, in data set [3], the Papp was 18 ×10⁻⁶ cm/s.

In data set [2], `Cc1c([C@@H](O)CN2CCC3(CC2)CCN(C2=CC(=O)CC2)C3=O)ccc2c1COC2=O` had an IC50 of 0.011 µM.

`CCC1=C(N2CCC3(CCN(C[C@H](O)c4ccc5c(c4C)COC5=O)CC3)C2=O)COC1=O`: in data set [2], 0.018 µM corresponded to half-maximal inhibition (IC50). In addition, the Papp in data set [3] amounted to 23 ×10⁻⁶ cm/s.

Take `Cc1c([C@@H](O)CN2CCC3(CC2)CCN(C2=C(Cl)C(=O)OC2)C3=O)ccc2c1COC2=O`: it took 0.006 µM to reach half-maximal inhibition in data set [2] (IC50). The apparent permeability (Papp) in data set [3] was 33 ×10⁻⁶ cm/s.
